The values that follow come from patent US20230174530A1, “N-(PHENYLAMINOCARBONYL) TETRAHYDRO-ISOQUINOLINES AND RELATED COMPOUNDS AS MODULATORS OF GPR65” (PATHIOS THERAPEUTICS LIMITED, priority 2020, published 2023).

What is called pIC50 is the IC50 on a negative log10 scale, so that one unit is a factor of ten.

Molecules are shown by their SMILES. pIC50: −log10 of the molar value.

In the experiment the target is T1, human recombinant GPR65 (Homo sapiens, UniProt Q8IYL9).
T1 construct: host or cells: 1321N1 human astrocytoma cells (1321N1-hrGPR65)
T1 sequence (Q8IYL9 whole entry): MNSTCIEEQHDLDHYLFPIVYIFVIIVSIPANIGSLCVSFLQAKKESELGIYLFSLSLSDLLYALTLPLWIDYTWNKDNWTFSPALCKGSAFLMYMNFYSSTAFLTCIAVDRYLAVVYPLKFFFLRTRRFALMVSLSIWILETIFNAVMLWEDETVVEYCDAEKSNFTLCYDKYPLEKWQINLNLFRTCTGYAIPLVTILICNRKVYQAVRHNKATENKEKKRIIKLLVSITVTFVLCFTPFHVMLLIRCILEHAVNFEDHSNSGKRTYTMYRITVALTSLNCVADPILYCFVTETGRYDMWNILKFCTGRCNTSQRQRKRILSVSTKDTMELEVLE
As to the kind of experiment: Human GPR65 cAMP HTRF antagonist assay. The format is cell-based. Conditions: 1321N1-hrGPR65 cells stimulated at assay pH 7.2; suppression of cAMP rise; read-out: hGPR65 IC50. Summed up: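 1321N1 astrocytoma cells stably expressing human GPR65, 2,000 per well in KRH with 1 mM IBMX and 200 μM EDTA, preincubated 30 min with compound at RT. Acid stimulation at pH 7.2 for 30 min, pH 7.9 as control. cAMP read by HTRF 665/620 ratio; IC50 from normalised 4-parameter fit.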
For orientation: TR-FRET usually uses a lanthanide donor and a delayed reading to cut background.
In the case of `COc1ccc2c(c1)CN(C(=O)Nc1ccc(C(F)(F)F)c(Cl)c1)CC2` [Compound 63, N-(3-Chloro-4-(trifluoromethyl)phenyl)-7-methoxy-3,4-dihydroisoquinoline-2(1H)-carboxamide], the pIC50 was 5.30 to 6.30.

Take `Nc1cc2c(cn1)CN(C(=O)Nc1ccc(Cl)c(Cl)c1)CC2` [Compound 84, 6-Amino-N-(3,4-dichlorophenyl)-3,4-dihydro-2,7-naphthyridine-2(1H)-carboxamide]: the pIC50 was < 5.30. As to `O=C(Nc1ccc(Cl)c(Cl)c1)N1CCc2cc(-c3cccs3)ccc2C1` [Compound 127, N-(3,4-Dichlorophenyl)-6-(thiophen-2-yl)-3,4-dihydroisoquinoline-2(1H)-carboxamide], the pIC50 is < 5.30. The value for `O=C(Nc1ccc(Cl)c(Cl)c1)N1CCc2cnc(F)cc2C1` [Compound 86, N-(3,4-Dichlorophenyl)-7-fluoro-3,4-dihydro-2,6-naphthyridine-2(1H)-carboxamide] was 5.30 to 6.30; that for `O=C(Nc1ccc(C(F)(F)F)c(Cl)c1)N1CCc2ccccc2C1` [Compound 10, N-(3-Chloro-4-(trifluoromethyl)phenyl)-3,4-dihydroisoquinoline-2(1H)-carboxamide] was 5.30 to 6.30. Turning to `O=C(Nc1ccc(Cl)c(Cl)c1)N1CCc2cn3ncnc3cc2C1` [Compound 121, N-(3,4-Dichlorophenyl)-6,7-dihydro-[1,2,4]triazolo[1,5-b][2,6]naphthyridine-8(9H)-carboxamide], the pIC50 is < 5.30. The value for `O=C(Nc1ccc(C(F)(F)F)c(Cl)c1)N1CCc2cccnc2C1` [Compound 19, N-(3-Chloro-4-(trifluoromethyl)phenyl)-5,8-dihydro-1,7-naphthyridine-7(6H)-carboxamide] was 5.30 to 6.30; that for `O=C(Nc1ccc(C(F)(F)F)c(Cl)c1)N1CCc2ccncc2C1` [Compound 17, N-(3-Chloro-4-(trifluoromethyl)phenyl)-3,4-dihydro-2,7-naphthyridine-2(1H)-carboxamide] was 5.30 to 6.30. Turning to `O=C(Nc1ccc(C(F)(F)F)c(Cl)c1)N1CCc2ccc(Cl)cc2C1` [Compound 30, 7-Chloro-N-(3-chloro-4-(trifluoromethyl)phenyl)-3,4-dihydroisoquinoline-2(1H)-carboxamide], the negative logarithm of the IC50 (pIC50) was > 6.30. For `N#Cc1cc2c(cn1)CN(C(=O)Nc1ccc(Cl)c(Cl)c1)CC2` [Compound 102, 6-Cyano-N-(3,4-dichlorophenyl)-3,4-dihydro-2,7-naphthyridine-2(1H)-carboxamide] the value was 5.30 to 6.30.

Consider `O=C(Nc1ccc(Cl)c(Cl)c1)N1CCc2cc3cncn3cc2C1` [Compound 113, N-(3,4-Dichlorophenyl)-8,9-dihydroimidazo[1,5-b][2,7]naphthyridine-7(6H)-carboxamide], for which the pIC50 is > 6.30. The value for `O=C(Nc1ccc(Cl)c(Cl)c1)N1CCc2[nH]c(=O)ncc2C1` [Compound 88, N-(3,4-Dichlorophenyl)-2-oxo-1,5,7,8-tetrahydropyrido[4,3-d]pyrimidine-6(2H)-carboxamide] was 5.30 to 6.30; that for `O=C(Nc1ccc(Cl)c(C(F)(F)F)c1)N1CCc2ccc(F)cc2C1` [Compound 32, N-(4-Chloro-3-(trifluoromethyl)phenyl)-7-fluoro-3,4-dihydroisoquinoline-2(1H)-carboxamide] was 5.30 to 6.30.

With `O=C(Nc1ccc(C(F)(F)F)c(Cl)c1)N1CCc2c(Cl)cccc2C1` [Compound 57, 5-Chloro-N-(3-chloro-4-(trifluoromethyl)phenyl)-3,4-dihydroisoquinoline-2(1H)-carboxamide], the pIC50 was 5.30 to 6.30. For `Cc1noc(-c2ccc3c(c2)CCN(C(=O)Nc2ccc(Cl)c(Cl)c2)C3)n1` [Compound 140, N-(3,4-Dichlorophenyl)-6-(3-methyl-1,2,4-oxadiazol-5-yl)-3,4-dihydroisoquinoline-2(1H)-carboxamide] the value was > 6.30. The value for `O=C(Nc1ccc(Cl)c(C(F)(F)F)c1)N1CCc2c(Cl)cccc2C1` [Compound 56, 5-Chloro-N-(4-chloro-3-(trifluoromethyl)phenyl)-3,4-dihydroisoquinoline-2(1H)-carboxamide] was < 5.30. As to `O=C(Nc1ccc(Cl)c(Cl)c1)N1CCc2cc(=O)[nH]cc2C1` [Compound 76, N-(3,4-Dichlorophenyl)-6-oxo-3,4,6,7-tetrahydro-2,7-naphthyridine-2(1H)-carboxamide], the pIC50 was > 6.30. For `O=C(Nc1ccc(C(F)(F)F)c(Cl)c1)N1CCc2c(cccc2C(F)(F)F)C1` [Compound 70, N-(3-Chloro-4-(trifluoromethyl)phenyl)-5-(trifluoromethyl)-3,4-dihydroisoquinoline-2(1H)-carboxamide] the value was < 5.30. The value for `O=C(Nc1ccc(Cl)c(Cl)c1)N1CCc2ncncc2C1` [Compound 1, N-(3,4-Dichlorophenyl)-7,8-dihydropyrido[4,3-d]pyrimidine-6(5H)-carboxamide] was 5.30 to 6.30. On to `COc1cccc2c1CCN(C(=O)Nc1ccc(C(F)(F)F)c(Cl)c1)C2` [Compound 134, N-(3-Chloro-4-(trifluoromethyl)phenyl)-5-methoxy-3,4-dihydroisoquinoline-2(1H)-carboxamide], for which the pIC50 was 5.30 to 6.30. The value for `O=C(Nc1ccc(Cl)c(Cl)c1)N1CCc2cc3ncnn3cc2C1` [Compound 111, N-(3,4-Dichlorophenyl)-8,9-dihydro-[1,2,4]triazolo[1,5-b][2,7]naphthyridine-7(6H)-carboxamide] was < 5.30. For `CS(=O)(=O)c1ccc2c(c1)CCN(C(=O)Nc1ccc(C(F)(F)F)c(Cl)c1)C2` [Compound 124, N-(3-Chloro-4-(trifluoromethyl)phenyl)-6-(methylsulfonyl)-3,4-dihydroisoquinoline-2(1H)-carboxamide], the pIC50 was < 5.30. For `O=C(Nc1ccc(Cl)c(Cl)c1)N1CCc2cc3nncn3cc2C1` [Compound 109, N-(3,4-Dichlorophenyl)-8,9-dihydro-[1,2,4]triazolo[4,3-b][2,7]naphthyridine-7(6H)-carboxamide] the value was > 6.30; for `O=C(Nc1ccc(C(F)(F)F)c(Cl)c1)N1CCc2oncc2C1` [Compound 26, N-(3-Chloro-4-(trifluoromethyl)phenyl)-6,7-dihydroisoxazolo[4,5-c]pyridine-5(4H)-carboxamide], 5.30 to 6.30. Regarding `O=C(Nc1ccc(Cl)c(C(F)(F)F)c1)N1CCc2cncnc2C1` [Compound 7, N-(4-Chloro-3-(trifluoromethyl)phenyl)-5,8-dihydropyrido[3,4-d]pyrimidine-7(6H)-carboxamide], the pIC50 was 5.30 to 6.30. Regarding `O=C(Nc1cc(Cl)c(Cl)cc1F)N1CCc2cc(=O)[nH]cc2C1` [Compound 112, N-(4,5-Dichloro-2-fluorophenyl)-6-oxo-3,4,6,7-tetrahydro-2,7-naphthyridine-2(1H)-carboxamide], the pIC50 is > 6.30. As to `O=C(Nc1ccc(Cl)c(Cl)c1)N1CCc2nc(F)ccc2C1` [Compound 123, N-(3,4-Dichlorophenyl)-2-fluoro-7,8-dihydro-1,6-naphthyridine-6(5H)-carboxamide], the pIC50 was > 6.30.

For `O=C(Nc1ccc(Cl)cc1)N1CCc2ncncc2C1` [Compound 2, N-(4-Chlorophenyl)-7,8-dihydropyrido[4,3-d]pyrimidine-6(5H)-carboxamide], the pIC50 was < 5.30. For `O=C(Nc1ccc(Cl)c(Cl)c1)N1CCc2cc(Cl)ccc2C1` [Compound 52, 6-Chloro-N-(3,4-dichlorophenyl)-3,4-dihydroisoquinoline-2(1H)-carboxamide], the pIC50 is > 6.30.

Regarding `O=C(Nc1ccc(C(F)(F)F)c(Cl)c1)N1CCc2cnccc2C1` [Compound 14, N-(3-Chloro-4-(trifluoromethyl)phenyl)-3,4-dihydro-2,6-naphthyridine-2(1H)-carboxamide], the negative logarithm of the IC50 (pIC50) was > 6.30. For `O=C(Nc1ccc(Cl)c(Cl)c1)N1CCc2ccc(O)cc2C1` [Compound 96, N-(3,4-Dichlorophenyl)-7-hydroxy-3,4-dihydroisoquinoline-2(1H)-carboxamide], the pIC50 is 5.30 to 6.30.

Turning to `COC(=O)c1cc2c(cn1)CN(C(=O)Nc1ccc(C(F)(F)F)c(Cl)c1)CC2` [Compound 129, Methyl 7-((3-chloro-4-(trifluoromethyl)phenyl)carbamoyl)-5,6,7,8-tetrahydro-2,7-naphthyridine-3-carboxylate], the pIC50 is 5.30 to 6.30. For `Cc1cccc2c1CCN(C(=O)Nc1ccc(C(F)(F)F)c(Cl)c1)C2` [Compound 60, N-(3-Chloro-4-(trifluoromethyl)phenyl)-5-methyl-3,4-dihydroisoquinoline-2(1H)-carboxamide] the value was 5.30 to 6.30. For `O=C(Nc1ccc(Cl)c(C(F)(F)F)c1)N1CCc2[nH]c(=O)ccc2C1` [Compound 77, N-(4-Chloro-3-(trifluoromethyl)phenyl)-2-oxo-1,5,7,8-tetrahydro-1,6-naphthyridine-6(2H)-carboxamide] the value was < 5.30.

`O=C(Nc1ccc(C(F)(F)F)c(Cl)c1)N1CCc2c(F)cccc2C1` [Compound 36, N-(3-Chloro-4-(trifluoromethyl)phenyl)-5-fluoro-3,4-dihydroisoquinoline-2(1H)-carboxamide]: the pIC50 is > 6.30. The value for `COc1cccc2c1CCN(C(=O)Nc1ccc(Cl)c(C(F)(F)F)c1)C2` [Compound 133, N-(4-Chloro-3-(trifluoromethyl)phenyl)-5-methoxy-3,4-dihydroisoquinoline-2(1H)-carboxamide] was 5.30 to 6.30; that for `O=C(Nc1ccc(Cl)c(Cl)c1)N1CCc2oncc2C1` [Compound 80, N-(3,4-Dichlorophenyl)-6,7-dihydroisoxazolo[4,5-c]pyridine-5(4H)-carboxamide] was 5.30 to 6.30.

On to `O=C(Nc1ccc(C(F)(F)F)c(Cl)c1)N1CCc2c[nH]c(=O)cc2C1` [Compound 100, N-(3-Chloro-4-(trifluoromethyl)phenyl)-7-oxo-3,4,6,7-tetrahydro-2,6-naphthyridine-2(1H)-carboxamide], for which the pIC50 is < 5.30.
